Test results from paper PMC7608335 (Acta Pharmacologica Sinica, 2020).

Legend:
[1] = molecular target: T1, CaV1.2 channel (α1C subunit) (Rattus norvegicus, UniProt P22002); assay: whole-cell patch clamp; assay type: cell-based; conditions: read-out: % of control at 100 nM
[2] = molecular target: T1, CaV1.2 channel (α1C subunit); assay: whole-cell patch clamp of ICa1.[…]; assay type: cell-based; conditions: read-out: % inhibition at 100 μM

SMILES | remaining activity at 0.1 µM [1] [%] | inhibition at 100 µM [2] [%]
COC(=O)C1=C(C)NC(C)=C([N+](=O)[O-])[C@H]1c1ccccc1C(F)(F)F [Bay K 8644, (S)-(-)-methyl-1,4-dihydro-2,6-dimethyl-3-nitro-4-(2-trifluoromethylphenyl)pyridine-5-carboxylate] | 524 | 
O=C(c1ccc(F)cc1)C1CCN(CCn2c(=O)[nH]c3ccccc3c2=O)CC1 [ketanserin, 3-[2-[4-(4-fluorobenzoyl)piperidin-1-yl]ethyl]-1H-quinazoline-2,4-dione] |  | ~50
